Measured values published in ChEMBL document CHEMBL1125116 (J Med Chem, 1990).

Target: D(2) dopamine receptor (Rattus norvegicus, UniProt P61169)
Assay: Evaluated in vitro for the affinity towards Dopamine receptor D2 of rat striatal tissue

D(2) dopamine receptor, sequence (P61169 whole entry): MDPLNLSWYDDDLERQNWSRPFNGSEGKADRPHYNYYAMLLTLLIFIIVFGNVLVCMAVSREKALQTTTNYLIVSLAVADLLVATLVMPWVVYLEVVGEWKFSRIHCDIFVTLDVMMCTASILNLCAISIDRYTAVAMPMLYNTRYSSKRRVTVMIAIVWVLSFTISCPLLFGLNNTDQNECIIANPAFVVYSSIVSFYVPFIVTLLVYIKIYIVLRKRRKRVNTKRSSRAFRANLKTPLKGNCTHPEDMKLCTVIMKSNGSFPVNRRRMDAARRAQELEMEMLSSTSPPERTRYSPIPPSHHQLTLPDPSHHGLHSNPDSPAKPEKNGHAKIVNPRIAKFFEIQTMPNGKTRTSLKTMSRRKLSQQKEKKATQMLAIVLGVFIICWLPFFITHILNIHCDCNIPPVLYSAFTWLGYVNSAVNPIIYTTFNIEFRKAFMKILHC

| Kd | Structure (SMILES) |
| --- | --- |
| 3 nM | CCN1CCC[C@H]1CNC(=O)c1cc(I)ccc1OC [IODOPRIDE] |
| 0.43 nM | CCN1CCC[C@H]1CNC(=O)c1c(OC)ccc(I)c1O [IOLOPRIDE] |
